Test results taken from US20180209979A1, “METHOD FOR INDIVIDUALIZED CANCER THERAPY” (INSERM (INSTITUT NATIONAL DE LA SANTE ET DE LA RECHERCHE), priority 2015, published 2018).

What was measured:
CAL33 cells [1] = experiment: Clonogenicity assay (clonal growth) of shC, sh1 and sh2 CAL33 cells; type: cell-based, human; conditions: for inhibition at 0.1 µM: Homo sapiens, CAL-33, erlotinib 0.1 μmol/L, FIG. 7
Protocol: The mean and standard deviation were calculated for three independent experiments. Statistical analysis was carried out using a t test. […] Dishes were then stained with Giemsa (Fluka) and plates were scanned in order to analyze the results by computer with ImageJ software (NIH, USA).

CAL33 cells [2] = conditions: read-out: IC50 of erlotinib, Quesnelle K M et al. 2012; cited from earlier work
head and neck tumors = conditions: Agulnik M et al. 2007; cited from earlier work
CAL 33 cells = experiment: qPCR analysis of pro-angiogenic/pro-inflammatory genes induced by TRF2 silencing; type: cell-based, human; conditions: shC cells = 100
Text: (§1) To further analyze the effect of TRF2 knock-down on cell proliferation, invasion capabilities and treatment response, CAL 33 cells expressing shRNA against TRF2 and dominant negative forms of TRF2 were generated (Biroccio A et al. Nat Cell Biol 2013; 15(7):818-28). CAL 33 cells were infected using lentiviral vector (pLKOpuro-3×LacO, Sigma). The plasmids contained scramble (shC; SEQ ID No1) or TRF2-specific shRNA, sh1 (SEQ ID No2) or sh2 (SEQ ID No3).

CAL27 cells = experiment: Cumulative population doublings of CAL27 cells; type: cell-based, human; conditions: FIG. 3B
Protocol: (§2) For cumulative population doublings assays (Nekanti U et al. Int J Biol Sci 2010; 6(5):499-512.) 10^5 cells were grown in 7.5% FCS-DMEM medium for 28 days at 37° C. and 5% CO2 in Petri boxes 100 mm diameter. Cells were counted each day (Coulter, Beckman) and media were changed every five days. Cells at each passage was calculated as a ratio of total number of cells harvested to total number of cells seeded multiplied by the total number of cells from the previous passage. Population doublings were calculated using the formula: […]
(§3) in which NI is the inoculum cell number and NH the cell harvest number.
(§4) To yield the cumulated doubling level, the population doubling for each passage was calculated and then added to the population doubling levels of the previous passages. The population doubling time was obtained by the formula: […]
(§5) In which NI is the inoculum cell number; NH is the cell harvest number and t is the time of the culture (in hours).

CAL33LUC cells = experiment: Tumor xenograft formation, size evaluation and tumor section analysis; type: in vivo; conditions: 10^6 CAL33LUC cells subcutaneously in nude mice, versus shC, FIG. 5
Protocol: 10^6 cells were injected subcutaneously into the flanks of 5-week-old nude (nu/nu) female mice (Janvier). Bioluminescence was quantified using the In Vivo Imaging System (Perkin Elmer) according to the manufacturer's instructions. Tumor volume [(v ¼ L l^2 0.52] was determined in parallel using a caliper. There was a linear relationship between values for bioluminescence and the tumor volume.
Immuno-histochemical staining for TRF2 was carried out in 3 μm tissue sections from formalin-fixed, paraffin-embedded tissue blocks. Histopathological analysis was conducted in 3 μm tissue sections colored with Masson's trichrome (blue collagen) and scanned with Leica Slide Path. For each tumor, pictures were taken and the following parameters were analyzed using Leica Slide Path Gateway software: total area of the section, area of necrosis, presence of white blood cells inflammatory infiltrate, presence of red blood cells extravasation, thickness of collagen around vessels, number of vessels.

CAL33 cells [3] = experiment: Cumulative population doublings of CAL33 cells; type: cell-based, human; conditions: FIG. 2B
Protocol: as §2, §3, §4, §5

TRF2 = TRF2 knock-down tested by immunoblotting in CAL33 cells; type: cell-based, human; conditions: FIG. 2A
Text: as §1
The following antibodies were used for Western blotting: anti-phospho ERK 1,2 (Sigma St Louis, Mo.), anti-phospho Akt, anti-Akt, anti-EGFR (Cell Signaling, Cambridge, UK,), anti-ERKs (Santa Cruz Biotechnology, Santa Cruz, Calif.)), anti-TRF2 (Novus bio, Cambridge, UK) and alpha-tubulin (Fischer scientific, Illkirch France).

| Compound | percentage expression of 36B4 (CAL 33 cells) | percentage expression of CXCL1 (CAL 33 cells) | percentage expression of CXCL7 (CAL 33 cells) | percentage expression of CXCL8 (CAL 33 cells) | percentage expression of CXCL9 (CAL 33 cells) | percentage expression of GAPDH (CAL 33 cells) | percentage expression of IL6 (CAL 33 cells) | percentage expression of PDGF-BB (CAL 33 cells) | percentage expression of RANTES (CAL 33 cells) | percentage expression of TRF2 (CAL 33 cells) | percentage expression of m-RPLP0 (CAL 33 cells) | proliferation (cumulative population doublings) (CAL27 cells) | tumor growth / tumor size (bioluminescence) (CAL33LUC cells) | proliferation (cumulative population doublings) (CAL33 cells [3]) | also measured |
| --- | --- | --- | --- | --- | --- | --- | --- | --- | --- | --- | --- | --- | --- | --- | --- |
| O=c1[nH]cc(F)c(=O)[nH]1 [5 FU] |  |  |  |  |  |  |  |  |  |  |  |  |  |  | influence of TRF2 knock-down on the efficacy of the drug (clonal growth) (CAL33 cells [1]; shC, sh1 and sh2 CAL33 cells, FIG. 6B): no influence |
| C#Cc1cccc(Nc2ncnc3cc(OCCOC)c(OCCOC)cc23)c1 [erlotinib] |  |  |  |  |  |  |  |  |  |  |  |  |  |  | inhibition at 0.1 µM (CAL33 cells [1]; sh1 CAL33 cells (TRF2 knock-down)): 40%; inhibition at 0.1 µM (CAL33 cells [1]; sh2 CAL33 cells (TRF2 knock-down)): 50%; IC50 (CAL33 cells [2]): 5.4 µM; patients with an objective response to the treatment (head and neck tumors): 50% |
| sh1: TRF2-specific shRNA encoded by DNA of SEQ ID No2, expressed from lentiviral vector (DNA GCCAGAATATCATTAGCGTTTCTCGAGAAACGCTAATGATATTCTGGC) | 100% | 380(***) % | 110% | 350(***) % | 210(**) % | 100% | 400(***) % | 150(*) % | 270(***) % | 70% | 100% | does not impair CAL27 proliferation | decreases tumor growth | does not impair CAL33 proliferation |  |
| sh2: TRF2-specific shRNA encoded by DNA of SEQ ID No3, expressed from lentiviral vector (DNA GCGCATGACAATAAGCAGATTCTCGAGAATCTGCTTATTGTCATGCGC) | 100% | 370(***) % | 120(*) % | 1100(***) % | 600(***) % | 100% | 1000(***) % | 190(***) % | 190(***) % | 40% | 100% | does not impair CAL27 proliferation | decreases tumor growth | does not impair CAL33 proliferation | efficacy in knocking-down TRF2 (TRF2): most efficient; tumor growth / tumor size (bioluminescence) (CAL33LUC cells; listed as shTRF2 #2): smallest tumors |
